Test results: PubChem BioAssay AID1259407 (Chemical Carcinogenesis Research Information System (CCRIS), 2018)
The source made the active and inactive calls. The rule behind the calls is not given here.

Test system: CCRIS mutagenicity, Ames/micronucleus/aberration tests
Assay: CCRIS mutagenicity studies
[1] = Test System: AMES SALMONELLA TYPHIMURIUM, Strain/Indicator: TA98, Metabolic Activation: NONE, Method: PREINCUBATION
[2] = Test System: AMES SALMONELLA TYPHIMURIUM, Strain/Indicator: TA100, Metabolic Activation: NONE, Method: PREINCUBATION
[3] = Test System: AMES SALMONELLA TYPHIMURIUM, Strain/Indicator: TA1535, Metabolic Activation: NONE, Method: PREINCUBATION
[4] = Test System: AMES SALMONELLA TYPHIMURIUM, Strain/Indicator: TA1537, Metabolic Activation: NONE, Method: PREINCUBATION
[5] = Test System: AMES SALMONELLA TYPHIMURIUM, Strain/Indicator: TA100, Metabolic Activation: NONE, Method: STANDARD PLATE

For `CCCSC(=O)Cl`, the mutagenic call (Test System: AMES SALMONELLA TYPHIMURIUM, Strain/Indicator: TA97, Metabolic Activation: HAMSTER, LIVER, S-9, AROCLOR 1254 (30%), Method: PREINCUBATION) was “inactive; negative”, the mutagenic call (Test System: AMES SALMONELLA TYPHIMURIUM, Strain/Indicator: TA97, Metabolic Activation: NONE, Method: PREINCUBATION) was “inactive; negative” and the mutagenic call (Test System: AMES SALMONELLA TYPHIMURIUM, Strain/Indicator: TA97, Metabolic Activation: RAT, LIVER, S-9, AROCLOR 1254 (30%), Method: PREINCUBATION) was “inactive; negative”. The mutagenic call (Test System: AMES SALMONELLA TYPHIMURIUM, Strain/Indicator: TA98, Metabolic Activation: HAMSTER, LIVER, S-9, AROCLOR 1254 (30%), Method: PREINCUBATION) was “inactive; negative”, the mutagenic call [1] was “inactive; negative” and the mutagenic call (Test System: AMES SALMONELLA TYPHIMURIUM, Strain/Indicator: TA98, Metabolic Activation: RAT, LIVER, S-9, AROCLOR 1254 (30%), Method: PREINCUBATION) was “inactive; negative”. For the same molecule, the mutagenic call (Test System: AMES SALMONELLA TYPHIMURIUM, Strain/Indicator: TA100, Metabolic Activation: HAMSTER, LIVER, S-9, AROCLOR 1254 (30%), Method: PREINCUBATION) was “inactive; negative”, the mutagenic call [2] was “inactive; negative” and the mutagenic call (Test System: AMES SALMONELLA TYPHIMURIUM, Strain/Indicator: TA100, Metabolic Activation: RAT, LIVER, S-9, AROCLOR 1254 (30%), Method: PREINCUBATION) was “inactive; negative”. For the same molecule, the mutagenic call (Test System: AMES SALMONELLA TYPHIMURIUM, Strain/Indicator: TA1535, Metabolic Activation: HAMSTER, LIVER, S-9, AROCLOR 1254 (5%), Method: PREINCUBATION) was “inactive; negative”, the mutagenic call (Test System: AMES SALMONELLA TYPHIMURIUM, Strain/Indicator: TA1535, Metabolic Activation: HAMSTER, LIVER, S-9, AROCLOR 1254 (10%), Method: PREINCUBATION) was “active; positive” and the mutagenic call (Test System: AMES SALMONELLA TYPHIMURIUM, Strain/Indicator: TA1535, Metabolic Activation: HAMSTER, LIVER, S-9, AROCLOR 1254 (30%), Method: PREINCUBATION) was “active; positive”. The mutagenic call [3] was “inactive; negative”, the mutagenic call (Test System: AMES SALMONELLA TYPHIMURIUM, Strain/Indicator: TA1535, Metabolic Activation: RAT, LIVER, S-9, AROCLOR 1254 (30%), Method: PREINCUBATION) was “inactive; negative” and the mutagenic call (Test System: AMES SALMONELLA TYPHIMURIUM, Strain/Indicator: TA1537, Metabolic Activation: HAMSTER, LIVER, S-9, AROCLOR 1254 (30%), Method: PREINCUBATION) was “inactive; negative”. For the same molecule, the mutagenic call [4] was “inactive; negative” and the mutagenic call (Test System: AMES SALMONELLA TYPHIMURIUM, Strain/Indicator: TA1537, Metabolic Activation: RAT, LIVER, S-9, AROCLOR 1254 (30%), Method: PREINCUBATION) was “inactive; negative”.

`O=S(O)CO` was tested, and the mutagenic call [1] was “inactive; negative”, the mutagenic call (Test System: AMES SALMONELLA TYPHIMURIUM, Strain/Indicator: TA98, Metabolic Activation: RAT LIVER S-9, PHENOBARBITAL AND BETA-NAPHTHOFLAVONE, Method: PREINCUBATION) was “inactive; negative” and the mutagenic call [2] was “inactive; negative”. The mutagenic call (Test System: AMES SALMONELLA TYPHIMURIUM, Strain/Indicator: TA100, Metabolic Activation: RAT LIVER S-9, PHENOBARBITAL AND BETA-NAPHTHOFLAVONE, Method: PREINCUBATION) was “inactive; negative”, the mutagenic call (Test System: AMES SALMONELLA TYPHIMURIUM, Strain/Indicator: TA102, Metabolic Activation: NONE, Method: PREINCUBATION) was “inactive; negative” and the mutagenic call (Test System: AMES SALMONELLA TYPHIMURIUM, Strain/Indicator: TA102, Metabolic Activation: RAT LIVER S-9, PHENOBARBITAL AND BETA-NAPHTHOFLAVONE, Method: PREINCUBATION) was “inactive; negative”. For the same molecule, the mutagenic call (Test System: AMES SALMONELLA TYPHIMURIUM, Strain/Indicator: TA104, Metabolic Activation: NONE, Method: PREINCUBATION) was “inactive; negative”, the mutagenic call (Test System: AMES SALMONELLA TYPHIMURIUM, Strain/Indicator: TA104, Metabolic Activation: RAT LIVER S-9, PHENOBARBITAL AND BETA-NAPHTHOFLAVONE, Method: PREINCUBATION) was “inactive; negative” and the mutagenic call [3] was “inactive; negative”. The mutagenic call (Test System: AMES SALMONELLA TYPHIMURIUM, Strain/Indicator: TA1535, Metabolic Activation: RAT LIVER S-9, PHENOBARBITAL AND BETA-NAPHTHOFLAVONE, Method: PREINCUBATION) was “inactive; negative”, the mutagenic call [4] was “inactive; negative” and the mutagenic call (Test System: AMES SALMONELLA TYPHIMURIUM, Strain/Indicator: TA1537, Metabolic Activation: RAT LIVER S-9, PHENOBARBITAL AND BETA-NAPHTHOFLAVONE, Method: PREINCUBATION) was “inactive; negative”. The mutagenic call (Test System: E.COLI, Strain/Indicator: WP2UVRA/PKM101, Metabolic Activation: NONE, Method: PREINCUBATION) was “inactive; negative”, the mutagenic call (Test System: E.COLI, Strain/Indicator: WP2UVRA/PKM101, Metabolic Activation: RAT LIVER S-9, PHENOBARBITAL AND BETA-NAPHTHOFLAVONE, Method: PREINCUBATION) was “inactive; negative” and the mutagenic call (Test System: E.COLI, Strain/Indicator: WP2UVRA, Metabolic Activation: NONE, Method: PREINCUBATION) was “inactive; negative”. The mutagenic call (Test System: E.COLI, Strain/Indicator: WP2UVRA, Metabolic Activation: RAT LIVER S-9, PHENOBARBITAL AND BETA-NAPHTHOFLAVONE, Method: PREINCUBATION) was “inactive; negative”.

With `CCC(=O)CN(C)N=O` the mutagenic call (Test System: CHINESE HAMSTER V-79, Strain/Indicator: V-79/OUABAIN, Metabolic Activation: HAMSTER, HEPATOCYTES, Method: CELL-MEDIATED) was “active; positive”.

In the case of `CC(=O)N(O)c1ccc(Br)cc1`, the mutagenic call (Test System: AMES SALMONELLA TYPHIMURIUM, Strain/Indicator: TA98, Metabolic Activation: NONE, Method: STANDARD PLATE) was “inactive; negative”, the mutagenic call (Test System: AMES SALMONELLA TYPHIMURIUM, Strain/Indicator: TA98, Metabolic Activation: RAT, LIVER, S-9, AROCLOR 1254, Method: STANDARD PLATE) was “inactive; negative” and the mutagenic call [5] was “inactive; negative”. The mutagenic call (Test System: AMES SALMONELLA TYPHIMURIUM, Strain/Indicator: TA100, Metabolic Activation: RAT, LIVER, S-9, AROCLOR 1254, Method: STANDARD PLATE) was “inactive; negative”.

`CCCOC(C(=O)OC1CCN(C)CC1)(c1ccccc1)c1ccccc1` was tested, and the mutagenic call [1] was “inactive; negative”, the mutagenic call (Test System: AMES SALMONELLA TYPHIMURIUM, Strain/Indicator: TA98, Metabolic Activation: RAT, LIVER, S-9, PHENOBARBITAL AND 5,6-BENZOFLAVONE, Method: PREINCUBATION) was “inactive; negative” and the mutagenic call [2] was “inactive; negative”. For the same molecule, the mutagenic call (Test System: AMES SALMONELLA TYPHIMURIUM, Strain/Indicator: TA100, Metabolic Activation: RAT, LIVER, S-9, PHENOBARBITAL AND 5,6-BENZOFLAVONE, Method: PREINCUBATION) was “inactive; negative”, the mutagenic call [3] was “inactive; negative” and the mutagenic call (Test System: AMES SALMONELLA TYPHIMURIUM, Strain/Indicator: TA1535, Metabolic Activation: RAT, LIVER, S-9, PHENOBARBITAL AND 5,6-BENZOFLAVONE, Method: PREINCUBATION) was “inactive; negative”. The mutagenic call [4] was “inactive; negative”, the mutagenic call (Test System: AMES SALMONELLA TYPHIMURIUM, Strain/Indicator: TA1537, Metabolic Activation: RAT, LIVER, S-9, PHENOBARBITAL AND 5,6-BENZOFLAVONE, Method: PREINCUBATION) was “inactive; negative” and the mutagenic call (Test System: E. COLI, Strain/Indicator: WP2 UVRA, Metabolic Activation: NONE, Method: PREINCUBATION) was “inactive; negative”. The mutagenic call (Test System: E. COLI, Strain/Indicator: WP2 UVRA, Metabolic Activation: RAT, LIVER, S-9, PHENOBARBITAL AND 5,6-BENZOFLAVONE, Method: PREINCUBATION) was “inactive; negative”.

`[S]=[Pb]` was tested, and the mutagenic call (Test System: CHINESE HAMSTER V-79, Strain/Indicator: V-79/6-THIOGUANINE, Metabolic Activation: NONE, Method: STANDARD PLATE) was “active; positive”.

`CCOc1ccc(NC(=O)CC(C)O)cc1` (centres undefined) was tested, and the mutagenic call (Test System: AMES SALMONELLA TYPHIMURIUM, Strain/Indicator: TA100, Metabolic Activation: HAMSTER, LIVER, S-9, KANECHLOR 400, Method: PREINCUBATION) was “active; positive”, the mutagenic call (Test System: AMES SALMONELLA TYPHIMURIUM, Strain/Indicator: TA100, Metabolic Activation: HAMSTER, LIVER, S-9, Method: PREINCUBATION) was “inactive; negative” and the mutagenic call (Test System: AMES SALMONELLA TYPHIMURIUM, Strain/Indicator: TA100, Metabolic Activation: RAT, LIVER, S-9, KANECHLOR 400, Method: PREINCUBATION) was “inactive; negative”. For the same molecule, the mutagenic call (Test System: AMES SALMONELLA TYPHIMURIUM, Strain/Indicator: TA100, Metabolic Activation: RAT, LIVER, S-9, Method: PREINCUBATION) was “inactive; negative”.

With `O=[N+]([O-])c1ccc(OCC2CO2)cc1` (centres undefined) the mutagenic call [1] was “inactive; negative”, the mutagenic call [2] was “active; positive” and the mutagenic call [5] was “active; positive”. For the same molecule, the mutagenic call (Test System: AMES SALMONELLA TYPHIMURIUM, Strain/Indicator: TA104, Metabolic Activation: NONE, Method: STANDARD PLATE) was “active; positive”, the mutagenic call (Test System: AMES SALMONELLA TYPHIMURIUM, Strain/Indicator: TA4001, Metabolic Activation: NONE, Method: STANDARD PLATE) was “active; positive” and the mutagenic call (Test System: AMES SALMONELLA TYPHIMURIUM, Strain/Indicator: TA4006, Metabolic Activation: NONE, Method: STANDARD PLATE) was “active; positive”.
